Reference: patent publication US9206124B2, “Treatment of drug-resistant cancer with 2-aryl-2-(3-indolyl) acetohydroxamates” (New Mexico Technical Research Foundation, priority 2013, dated 2015)
Read-outs that look alike come from different tables or passages of the source.

Assays:
[1] = system: HeLa cervical adenocarcinoma cells; test: MTT antiproliferative assay, HeLa; type: cell-based; conditions: Homo sapiens, ± SD, read-out: cell viability GI50, HeLa
Text: (§1) This finding led to an exploration of the SAR analyses by synthesizing the first generation compounds 3 containing diverse substituents at different positions in the 2-aryl-2-(3-indolyl)acetohydroxamate skeleton and testing this series for in vitro growth inhibition using the MTT colorimetric assay against two cell lines, human HeLa cervical and MCF-7 breast adenocarcinomas (Table 1). It emerged from these experiments that the substitution on the benzene ring of the indole moiety (R^2≠H) was not tolerated (e.g., 3abfa and 3acfa), whereas the nitrogen could be derivatized (R^1≠H) with only a small activity drop (e.g., 3bafa vs 3aafa).
(§2) Human cancer cell lines were obtained from the American Type Culture Collection (ATCC, Manassas, Va., USA), the European Collection of Cell Culture (ECACC, Salisbury, UK) and the Deutsche Sammlung von Mikroorganismen and Zellkulturen (DSMZ, Braunschweig, Germany). Human cervical adenocarcinoma HeLa cells were cultured in DMEM supplemented with 10% fetal bovine serum (FBS). Human mammary carcinoma MCF-7 cells were cultured in RPMI supplemented with 10% FBS. The U87 cells (ATCC HTB-14) were cultured in DMEM culture medium, while the A549 cells (DSMZ ACC107) were cultured in RPMI culture medium supplemented with 10% heat-inactivated FBS. The glioblastoma multiforme Hs683 (ATCC HTB-138) and the T98G (ATCC CRL-1690) cell lines were cultivated in DMEM supplemented with 10% FBS. The Human uterine sarcoma MES-SA and MES-SA/Dx5 cells were cultured in RPMI-1640 medium supplemented with 10% FBS with MES SA/Dx5 maintained in the presence of 500 nM Doxorubicin (Sigma). SKMEL-28 cells (ATCC HTB72) and U373 glioblastoma cells (ECACC 08061901) were cultured in RPMI culture medium supplemented with 10% heat-inactivated FBS. Cell culture media were supplemented with 4 mM glutamine (Lonza code BE17-605E), 100 μg/mL gentamicin (Lonza code 17-5182), and penicillin-streptomycin (200 units/ml and 200 μg/ml) (Lonza code 17-602E). Neurosphere culture GBM 031810 was established using known methods and maintained in Neurobasal medium (Invitrogen Carlsbad, Calif.) with B27 supplement (20 ul/ml; Invitrogen), Glutamax (10 ul/ml; Invitrogen), fibroblast growth factor-2 (20 ng/ml; Peprotech, Rocky Hill, N.J., USA), epidermal growth factor (20 ng/ml; Peprotech), heparin (32 IE/ml; Sigma Aldrich, St. Louis, Mo.), and penicillin-streptomycin (1×, Invitrogen). Growth factors and heparin were renewed twice weekly. All cell lines were cultured in T25 flasks, maintained and grown at 37° C., 95% humidity, 5% CO2.
(§3) Antiproliferative properties of the synthesized compounds were evaluated by the MTT assay. All compounds were dissolved in DMSO at a concentration of either 100 mM or 50 mM prior to cell treatment. The cells were trypsinized and seeded at 4×10^3 cells per well into 96-well plates. The cells were grown for 24 h, treated with compounds at concentrations ranging from 0.001 to 100 μM and incubated for 48 h in 200 μL media. 20 μL of MTT reagent in serum free medium (5 mg/mL) was added to each well and incubated further for 2 h. Media was removed and the resulting formazan crystals were re-solubilized in 200 μL of DMSO. A490 was measured using a Molecular Devices Thermomax plate reader. The experiments were performed in quadruplicate and repeated at least twice for each compound per cell line. Cells treated with 0.1% DMSO were used as a negative control; 1 μM phenyl arsine oxide (PAO) was used as a positive control.

[2] = system: MCF-7 breast adenocarcinoma cells; test: MTT antiproliferative assay, MCF-7; type: cell-based; conditions: Homo sapiens, ± SD, read-out: cell viability GI50, MCF7
Text: as §1, §2, §3

[3] = system: HeLa cervical and MCF-7 breast adenocarcinomas; test: In vitro growth inhibition (MTT); type: cell-based, human; conditions: HeLa and MCF-7
Text: as §1, §3

[4] = system: MES-SA uterine sarcoma cells; test: MTT antiproliferative assay, MES-SA; type: cell-based; conditions: Homo sapiens, 48 h treatment, ± SD, read-out: GI50 in vitro, MES-SA
Description: Compared with the intrinsic drug resistance, as described above for such cancers as glioblastoma and melanoma, a large variety of tumors can also develop resistance to anticancer drugs resulting in MDR as explained previously. To assess whether the hydroxamates can overcome this resistance mechanism, selected hydroxamates were tested against MDR cells (Table 4). The MDR uterine sarcoma cell line MES-SA/Dx5 was utilized for this experiment. This cell line was established from the parent uterine sarcoma MES-SA, grown in the presence of increasing concentrations of doxorubicin and known to be resistant to a number of P-gp substrates. […] In contrast, there was only a small variation in the sensitivities of the two cell lines towards the hydroxamates indicating their potential to overcome clinical multi-drug resistance.
as §2, §3

U87 glioblastoma cells = test: MTT antiproliferative assay, U87; type: cell-based, human; conditions: FIG. 3; concentrations up to 100 μM
Description: (§4) As part of the ongoing efforts aimed at identification of compounds active against cancer cells displaying resistance to proapoptotic agents, the selected 2-aryl-2-(3-indolyl)-acetohydroxamates were evaluated for in vitro growth inhibition against a panel of additional cancer cell lines including those resistant to various proapoptotic stimuli, such as human T98G and U87 glioblastoma and human A549 non-small-cell-lung cancer (NSCLC), as well as an apoptosis-sensitive tumor model, such as human Hs683 anaplastic oligodendroglioma, used as a reference. The data reveal that for the most part these compounds retain the single-digit antiproliferatve GI50 values in this challenging cancer cell panel.
as §2, §3

[5] = system: A549 non-small-cell-lung cancer cells; test: MTT antiproliferative assay, A549; type: cell-based, human; conditions: FIG. 3; concentrations up to 100 μM
Description: as §4, §2, §3

SMILES | GI50 ([1]; Table 1, 48 h treatment) | GI50 ([2]; MCF7, Table 1, 48 h treatment) | GI50 ([1]; Table 2, 48 h treatment) | GI50 ([2]; MCF7, Table 2, 48 h treatment) | further results
O=C(NO)C(c1ccccc1)c1c(-c2ccccc2)[nH]c2ccccc12 (centres unmarked) [Compound 3aaaa] | 23 ± 2.6 µM | 31 ± 0.6 µM | – | – | antiproliferative potency (GI50) [3]: double-digit micromolar
O=C(NO)C(c1ccc([N+](=O)[O-])cc1)c1c(-c2ccccc2)[nH]c2ccccc12 (centres unmarked) [Compound 3aaab] | > 50 µM | > 50 µM | – | – | –
O=C(NO)C(c1ccccc1)c1c(-c2ccccc2[N+](=O)[O-])[nH]c2ccccc12 (centres unmarked) [Compound 3aaba] | > 50 µM | > 50 µM | – | – | –
COc1ccc(-c2[nH]c3ccccc3c2C(C(=O)NO)c2ccccc2)cc1 (centres unmarked) [Compound 3aaca] | > 50 µM | > 50 µM | – | – | –
Cc1[nH]c2ccccc2c1C(C(=O)NO)c1ccccc1 (centres unmarked) [Compound 3aada] | > 50 µM | > 50 µM | – | – | –
O=C(NO)C(c1ccccc1)c1c(-c2cccc3ccccc23)[nH]c2ccccc12 (centres unmarked) [Compound 3aaea] | 25.7 ± 1.6 µM | 32 ± 0.9 µM | – | – | –
O=C(NO)C(c1cccc(F)c1)c1c(-c2ccc3ccccc3c2)[nH]c2ccccc12 (centres unmarked) [Compound 3aafc] | – | – | 32.9 ± 1.1 µM | 20.4 ± 0.1 µM | –
O=C(NO)C(c1ccccc1Br)c1c(-c2ccc3ccccc3c2)[nH]c2ccccc12 (centres unmarked) [Compound 3aafd] | – | – | 13 ± 0.4 µM | 2.7 µM | –
COc1ccc(C(C(=O)NO)c2c(-c3ccc4ccccc4c3)[nH]c3ccccc23)cc1OC (centres unmarked) [Compound 3aaff] | – | – | 26.9 ± 0.3 µM | 2.4 ± 0.1 µM | –
O=C(NO)C(c1ccc(F)cc1)c1c(-c2ccc3ccccc3c2)[nH]c2ccccc12 (centres unmarked) [Compound 3aafg] | – | – | 18.2 ± 0.9 µM | 6.3 ± 1.1 µM | –
O=C(NO)C(c1ccccc1Cl)c1c(-c2ccc3ccccc3c2)[nH]c2ccccc12 (centres unmarked) [Compound 3aafh] | – | – | 31 ± 0.2 µM | 4.9 ± 0.1 µM | –
O=C(NO)C(c1ccc(Cl)c(Cl)c1)c1c(-c2ccc3ccccc3c2)[nH]c2ccccc12 (centres unmarked) [Compound 3aafi] | – | – | 31.7 ± 1.7 µM | 12.2 ± 1 µM | –
O=C(NO)C(c1ccc(OC(F)(F)F)cc1)c1c(-c2ccc3ccccc3c2)[nH]c2ccccc12 (centres unmarked) [Compound 3aafj] | – | – | 27.4 ± 0.2 µM | 10.2 ± 0.1 µM | –
CCOc1ccc(C(C(=O)NO)c2c(-c3ccc4ccccc4c3)[nH]c3ccccc23)cc1 (centres unmarked) [Compound 3aafl] | – | – | 17.3 ± 0.2 µM | 8.5 ± 0.3 µM | –
Cc1ccc(C(C(=O)NO)c2c(-c3ccc4ccccc4c3)[nH]c3ccccc23)cc1 (centres unmarked) [Compound 3aafm] | – | – | 6.3 ± 1.3 µM | 4.9 ± 0.2 µM | antiproliferative potency (GI50) [3]: single-digit micromolar
Cc1cccc(C(C(=O)NO)c2c(-c3ccc4ccccc4c3)[nH]c3ccccc23)c1 (centres unmarked) [Compound 3aafn] | – | – | 6.9 ± 0.4 µM | 7.4 ± 0.6 µM | antiproliferative potency (GI50) [3]: single-digit micromolar
CCN(CC)c1ccc(C(C(=O)NO)c2c(-c3ccc4ccccc4c3)[nH]c3ccccc23)cc1 (centres unmarked) [Compound 3aafo] | – | – | 4.1 ± 0.2 µM | 7.9 ± 0.7 µM | antiproliferative potency (GI50) [3]: single-digit micromolar
Cc1ccc2[nH]c(-c3ccc4ccccc4c3)c(C(C(=O)NO)c3ccccc3)c2c1 (centres unmarked) [Compound 3abfa] | > 50 µM | > 50 µM | – | – | –
COc1ccc2[nH]c(-c3ccc4ccccc4c3)c(C(C(=O)NO)c3ccccc3)c2c1 (centres unmarked) [Compound 3acfa] | > 50 µM | > 50 µM | – | – | –
Cn1c(-c2ccc3ccccc3c2)c(C(C(=O)NO)c2ccccc2)c2ccccc21 (centres unmarked) [Compound 3bafa] | 19.7 ± 1.7 µM | 10 ± 0.3 µM | – | – | –
Cn1c(-c2ccc3ccccc3c2)c(C(C(=O)NO)c2cccc(F)c2)c2ccccc21 (centres unmarked) [Compound 3bafc] | 36.8 ± 0.4 µM | 25.7 ± 1.4 µM | – | – | –
Cn1c(-c2ccc3ccccc3c2)c(C(C(=O)NO)c2ccccc2Br)c2ccccc21 (centres unmarked) [Compound 3bafd] | 24 ± 0.2 µM | 11.2 ± 0.9 µM | – | – | –
CCCCn1c(-c2ccc3ccccc3c2)c(C(C(=O)NO)c2ccc(C(C)C)cc2)c2ccccc21 (centres unmarked) [Compound 3cafe] | – | – | 6.6 ± 0.5 µM | 7.7 ± 0.4 µM | antiproliferative potency (GI50) [3]: single-digit micromolar
CCC(C)n1c(-c2ccc3ccccc3c2)c(C(C(=O)NO)c2ccccc2)c2ccccc21 (centres unmarked) [Compound 3dafa] | – | – | 9.8 ± 0.8 µM | 9.3 ± 0.3 µM | antiproliferative potency (GI50) [3]: single-digit micromolar
CC(=O)O[C@H]1C(=O)[C@@]2(C)[C@H]([C@H](OC(=O)c3ccccc3)[C@]3(O)C[C@H](OC(=O)[C@H](O)[C@@H](NC(=O)c4ccccc4)c4ccccc4)C(C)=C1C3(C)C)[C@]1(OC(C)=O)CO[C@@H]1C[C@@H]2O [Taxol, reference compound] | – | – | – | – | GI50 [4]: 0.007 ± 0.001 µM; cells whose proliferation is not affected, U87 (U87 glioblastoma cells): ca. 50%; cells whose proliferation is not affected, A549 [5]: ca. 50%
COc1cc([C@@H]2c3cc4c(cc3[C@H](O)[C@H]3COC(=O)[C@H]23)OCO4)cc(OC)c1OC [podophyllotoxin, reference compound] | – | – | – | – | cells whose proliferation is not affected, U87 (U87 glioblastoma cells): ca. 50%; cells whose proliferation is not affected, A549 [5]: ca. 50%
